Reference: PubChem BioAssay (NCI)
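Five concentrations, 48 hours, 96-well plates. At the GI50, growth is halved. TGI marks complete inhibition of growth.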

How the values were obtained:
Test in all cases: DTP human tumour cell line panel, 48 h
MALME-3M melanoma = tested on: MALME-3M melanoma
SF-268 CNS = tested on: SF-268 CNS
SK-MEL-5 melanoma = tested on: SK-MEL-5 melanoma
OVCAR-8 ovarian = tested on: OVCAR-8 ovarian
HOP-92 NSCLC = tested on: HOP-92 NSCLC
NCI/ADR-RES ovarian = tested on: NCI/ADR-RES ovarian
A498 renal = tested on: A498 renal
SF-539 CNS = tested on: SF-539 CNS
MOLT-4 leukemia = tested on: MOLT-4 leukemia
IGROV1 ovarian = tested on: IGROV1 ovarian
SNB-19 CNS = tested on: SNB-19 CNS
OVCAR-5 ovarian = tested on: OVCAR-5 ovarian
NCI-H226 lung = tested on: NCI-H226 lung
A549 NSCLC = tested on: A549 NSCLC
U251 CNS = tested on: U251 CNS
SF-295 CNS = tested on: SF-295 CNS
MCF7 breast = tested on: MCF7 breast
HL-60(TB) leukemia = tested on: HL-60(TB) leukemia
OVCAR-3 ovarian = tested on: OVCAR-3 ovarian
OVCAR-4 ovarian = tested on: OVCAR-4 ovarian
SR leukemia = tested on: SR leukemia
NCI-H460 lung = tested on: NCI-H460 lung
K-562 leukemia = tested on: K-562 leukemia
SK-MEL-28 melanoma = tested on: SK-MEL-28 melanoma
SW-620 colon = tested on: SW-620 colon
NCI-H23 lung = tested on: NCI-H23 lung
NCI-H522 lung = tested on: NCI-H522 lung
MDA-MB-231 breast = tested on: MDA-MB-231 breast
HS 578T breast = tested on: HS 578T breast
T-47D breast = tested on: T-47D breast
SK-OV-3 ovarian = tested on: SK-OV-3 ovarian
UACC-62 melanoma = tested on: UACC-62 melanoma
HCT-15 colon = tested on: HCT-15 colon
KM12 colon = tested on: KM12 colon
COLO 205 colon = tested on: COLO 205 colon
RPMI-8226 leukemia = tested on: RPMI-8226 leukemia
SN12C renal = tested on: SN12C renal
CAKI-1 renal = tested on: CAKI-1 renal
SNB-75 CNS = tested on: SNB-75 CNS
LOX IMVI melanoma = tested on: LOX IMVI melanoma
HT29 colon = tested on: HT29 colon
786-0 renal = tested on: 786-0 renal
UACC-257 melanoma = tested on: UACC-257 melanoma
M14 melanoma = tested on: M14 melanoma
PC-3 prostate = tested on: PC-3 prostate
BT-549 breast = tested on: BT-549 breast
MDA-MB-435 = tested on: MDA-MB-435
UO-31 renal = tested on: UO-31 renal
RXF 393 renal = tested on: RXF 393 renal
HCT-116 colon = tested on: HCT-116 colon
SK-MEL-2 melanoma = tested on: SK-MEL-2 melanoma
TK-10 renal = tested on: TK-10 renal
HCC-2998 colon = tested on: HCC-2998 colon
CCRF-CEM leukemia = tested on: CCRF-CEM leukemia
EKVX NSCLC = tested on: EKVX NSCLC
DU-145 prostate = tested on: DU-145 prostate
ACHN renal = tested on: ACHN renal
HOP-62 NSCLC = tested on: HOP-62 NSCLC

## O=C(Cc1ccccc1)Nc1nnc(CCSCCc2nnc(NC(=O)Cc3ccccc3)s2)s1
MALME-3M melanoma
  GI50: 13.5 µM
  TGI: 48.9 µM
SF-268 CNS
  GI50: 12.3 µM
  TGI: 62 µM
SK-MEL-5 melanoma
  GI50: 58 µM
  TGI: > 100 µM
OVCAR-8 ovarian
  GI50: 6.12 µM
  TGI: > 100 µM
HOP-92 NSCLC
  GI50: 4.5 µM
  TGI: 25.8 µM
NCI/ADR-RES ovarian
  GI50: > 100 µM
  TGI: > 100 µM
A498 renal
  GI50: 0.696 µM
  TGI: 31.9 µM
SF-539 CNS
  GI50: 22.8 µM
  TGI: > 100 µM
MOLT-4 leukemia
  GI50: 23.8 µM
  TGI: > 100 µM
IGROV1 ovarian
  GI50: 25.9 µM
  TGI: > 100 µM
SNB-19 CNS
  GI50: 11.2 µM
  TGI: 33.3 µM
OVCAR-5 ovarian
  GI50: > 100 µM
  TGI: > 100 µM
NCI-H226 lung
  GI50: 29.9 µM
  TGI: 97.4 µM
A549 NSCLC
  GI50: 0.541 µM
  TGI: > 100 µM
U251 CNS
  GI50: 4.1 µM
  TGI: 18.3 µM
SF-295 CNS
  GI50: 4.38 µM
  TGI: 36.6 µM
MCF7 breast
  GI50: 32.6 µM
  TGI: > 100 µM
HL-60(TB) leukemia
  GI50: 4.26 µM
  TGI: 65.4 µM
OVCAR-3 ovarian
  GI50: 6.16 µM
  TGI: 49.2 µM
OVCAR-4 ovarian
  GI50: 3.96 µM
  TGI: 32.7 µM
SR leukemia
  GI50: 13.9 µM
  TGI: 32.6 µM
NCI-H460 lung
  GI50: 14.5 µM
  TGI: > 100 µM
K-562 leukemia
  GI50: 1.34 µM
  TGI: > 100 µM
SK-MEL-28 melanoma
  GI50: 13.2 µM
  TGI: > 100 µM
SW-620 colon
  GI50: > 100 µM
  TGI: > 100 µM
NCI-H23 lung
  GI50: 28.8 µM
  TGI: > 100 µM
NCI-H522 lung
  GI50: 8.41 µM
  TGI: > 100 µM
MDA-MB-231 breast
  GI50: 6.51 µM
  TGI: 25.7 µM
HS 578T breast
  GI50: 1.93 µM
  TGI: 79.9 µM
T-47D breast
  GI50: 8.13 µM
  TGI: > 100 µM
SK-OV-3 ovarian
  GI50: 18.7 µM
  TGI: 71.3 µM
UACC-62 melanoma
  GI50: 19.2 µM
  TGI: > 100 µM
HCT-15 colon
  GI50: > 100 µM
  TGI: > 100 µM
KM12 colon
  GI50: 4.61 µM
  TGI: > 100 µM
COLO 205 colon
  GI50: > 100 µM
  TGI: > 100 µM
RPMI-8226 leukemia
  GI50: 5.67 µM
  TGI: > 100 µM
SN12C renal
  GI50: 5.34 µM
  TGI: 44.7 µM
CAKI-1 renal
  GI50: 11.7 µM
  TGI: 66 µM
SNB-75 CNS
  GI50: 5.18 µM
  TGI: 24.3 µM
LOX IMVI melanoma
  GI50: 1.72 µM
  TGI: 11.1 µM
HT29 colon
  GI50: > 100 µM
  TGI: > 100 µM
786-0 renal
  GI50: 6.11 µM
  TGI: 54.6 µM
UACC-257 melanoma
  GI50: > 100 µM
  TGI: > 100 µM
M14 melanoma
  GI50: 12.6 µM
  TGI: > 100 µM
PC-3 prostate
  GI50: 4.55 µM
  TGI: > 100 µM
BT-549 breast
  GI50: 5.18 µM
  TGI: 74.8 µM
MDA-MB-435
  GI50: 58.2 µM
  TGI: > 100 µM
UO-31 renal
  GI50: 81.8 µM
  TGI: > 100 µM
RXF 393 renal
  GI50: 17.9 µM
  TGI: 68.9 µM
HCT-116 colon
  GI50: 59.8 µM
  TGI: > 100 µM
SK-MEL-2 melanoma
  GI50: 16.5 µM
  TGI: > 100 µM
TK-10 renal
  GI50: 35.6 µM
  TGI: > 100 µM
HCC-2998 colon
  GI50: 89.8 µM
  TGI: > 100 µM
CCRF-CEM leukemia
  GI50: > 100 µM
  TGI: > 100 µM
EKVX NSCLC
  GI50: > 100 µM
  TGI: > 100 µM
DU-145 prostate
  GI50: 23.8 µM
  TGI: > 100 µM
ACHN renal
  GI50: > 100 µM
  TGI: > 100 µM
HOP-62 NSCLC
  GI50: 3.86 µM
  TGI: 19.6 µM
